According to patent US9750677B2, “Use of metal complexes which are mimetics of SOD as food agents and as cosmetics” (Universitat de València, priority 2014, dated 2017):
“And” between values parts separate entries of the source, which are not always exact repeats. Identical values can stand only once.

System: Medaka embryos
Test: Survival analysis using Medaka fish embryos, mortality at 72 hours in H2O2
Format: in vivo, Medaka (Oryzias latipes)
Details: stage 8 embryos pre-treated 4 days with 100 μM vitamin C, then 72 hours in 22.5 mM H2O2; for mortality, mean (± standard error in text): 6 replicates
Description: Individual adults (strain Cab, Carolina Biological Supply, (North Carolina)), were held in tanks with continuous water flow at 27° C., and a photoperiod of 14 hours of light and 10 hours of darkness. The fish were fed twice a day with Artemia nauplii, which were hatched daily from commercial Sanders® cysts, and with dry food once per day.
Fertilized eggs were collected daily, deposited in Yamamoto solution (0.13 M NaCl, 2.7 mM KCl, 1.8 mM CaCl2 and 0.24 mM NaHCO3, pH 7.3) (Yamamoto T., Medaka (killifish): Biology and strains. 1975, Tokyo: Keigaku Pub. Co), and were kept in the incubator at 26° C. The embryo stage was determined according to the description of Iwamatsu (Iwamatsu T., Stages of normal development in the medaka Oryzias latipes. Mech Dev. 2004, Vol. 121, pages 605-618).
Medaka embryos that were in stage 8 (early morula stage, Iwamatsu, 2004) were separated into 2 groups of 60 embryos and one group of 30 embryos. A group of 60 embryos were treated for 4 days with Pytren-4Q+Mn dissolved in Yamamoto solution at a concentration of 250 μM. The other group of 60 embryos were incubated for 4 days in Yamamoto solution. This group was used as a negative control. The group of 30 embryos, positive control group, were treated for 4 days with a Yamamoto solution of vitamin C, an antioxidant compound, at a concentration of 100 μM. After 4 days of incubation, the embryos were washed with Yamamoto solution. The groups of 60 embryos were separated one by one into two groups of 30 embryos. The embryos of all the groups were individually placed into the wells of 96-well plates, each well containing 200 μl of Yamamoto solution with H2O2, at different concentrations depending on the extension of incubation time at which mortality was observed. […] Thirty embryos of each initial group of 60 embryos and the 30 embryos of the group treated with vitamin C were treated with H2O2 Yamamoto solution at a concentration of 22.5 mM. […] Thirty embryos of each initial group of 60 embryos were treated with H2O2 Yamamoto solution at a concentration of 7.5 mM. […]

O=C1O[C@H]([C@@H](O)CO)C(O)=C1O [vitamin C]
mortality, mean (± standard error in text): 25.99±5.25%
mortality, mean (± standard error in text) (listed as Vitamin C): 25.99%
mortality, single replicates (30 embryos per replicate): 14.3% and 20.8% (2×) and 40.63% and 43.75% and 15.63%
